biological target: C5AR1 (Homo sapiens (Human), UniProt P21730); assay: In vitro assay: PathHunter beta-arrestin antagonist assay in CHO-K1 C5AR1 beta-arrestin cell line, stimulated with C5a agonist; conditions: not given
Sequence (P21730 whole entry): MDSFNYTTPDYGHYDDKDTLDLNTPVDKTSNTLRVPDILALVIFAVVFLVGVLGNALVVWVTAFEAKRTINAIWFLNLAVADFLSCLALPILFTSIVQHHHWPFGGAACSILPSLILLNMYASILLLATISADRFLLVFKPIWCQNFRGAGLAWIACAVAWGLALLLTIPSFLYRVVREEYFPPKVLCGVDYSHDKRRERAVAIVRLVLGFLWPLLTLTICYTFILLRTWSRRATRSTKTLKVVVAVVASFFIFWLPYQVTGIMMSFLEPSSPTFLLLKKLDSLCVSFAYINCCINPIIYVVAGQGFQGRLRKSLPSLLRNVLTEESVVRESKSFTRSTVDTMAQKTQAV

| Compound | IC50 |
| --- | --- |
| Cc1cccc(F)c1N1CCC(N2C(=O)N(Cc3ccccc3C(F)(F)F)c3ccccc3C2C)CC1 (single isomer, unassigned) [Example 71, (S)- or (R)-3-[1-(2-Fluoro-6-methyl-phenyl)-piperidin-4-yl]-4-methyl-1-(2-trifluoromethyl-benzyl)-3,4-dihydro-1H-quinazolin-2-one] | 59 nM |

same assay, conditions: read-out: C5aR IC50; CHO-K1 C5AR1 beta-arrestin cell line; 1-10 nM C5a agonist; geometric mean values

| Compound | IC50 |
| --- | --- |
| COc1ccccc1N1CCC(N2Cc3cccc(OC)c3N(Cc3ccccc3C(F)(F)F)C2=O)CC1 [Example 4, 8-Methoxy-3-[1-(2-methoxy-phenyl)-piperidin-4-yl]-1-(2-trifluoromethyl-benzyl)-3,4-dihydro-1H-quinazolin-2-one] | 944 nM |
| COc1cccc(F)c1N1CCC(N2Cc3cccc(OC)c3N(Cc3ccccc3C(F)(F)F)C2=O)CC1 [Example 5, 3-[1-(2-Fluoro-6-methoxy-phenyl)-piperidin-4-yl]-8-methoxy-1-(2-trifluoromethyl-benzyl)-3,4-dihydro-1H-quinazolin-2-one] | 300 nM |
| COc1ccccc1N1CCC(N2Cc3ccccc3N(Cc3ccccc3C(F)(F)F)C2=O)CC1 [Example 6, 3-[1-(2-Methoxy-phenyl)-piperidin-4-yl]-1-(2-trifluoromethyl-benzyl)-3,4-dihydro-1H-quinazolin-2-one] | 245 nM |
| COc1cccc(F)c1N1CCC(N2Cc3ccccc3N(Cc3ccccc3C(F)(F)F)C2=O)CC1 [Example 7, 3-[1-(2-Fluoro-6-methoxy-phenyl)-piperidin-4-yl]-1-(2-trifluoromethyl-benzyl)-3,4-dihydro-1H-quinazolin-2-one] | 58 nM |
| COc1cccc2c1N(Cc1ccccc1C(F)(F)F)C(=O)N([C@@H]1CCN(c3c(F)cccc3F)C1)C2 [Example 8, 3-[(R)-1-(2,6-Difluoro-phenyl)-pyrrolidin-3-yl]-8-methoxy-1-(2-trifluoromethyl-benzyl)-3,4-dihydro-1H-quinazolin-2-one] | 104 nM |
| COc1cccc2c1N(Cc1ccccc1C(F)(F)F)C(=O)N([C@@H]1CCN(c3c(C)cccc3C)C1)C2 [Example 9, 3-[(R)-1-(2,6-Dimethyl-phenyl)-pyrrolidin-3-yl]-8-methoxy-1-(2-trifluoromethyl-benzyl)-3,4-dihydro-1H-quinazolin-2-one] | 25 nM |
| COc1ccccc1N1CC[C@@H](N2Cc3cccc(OC)c3N(Cc3ccccc3C(F)(F)F)C2=O)C1 [Example 10, 8-Methoxy-3-[(R)-1-(2-methoxy-phenyl)-pyrrolidin-3-yl]-1-(2-trifluoromethyl-benzyl)-3,4-dihydro-1H-quinazolin-2-one] | 1870 nM |
| COc1cccc(F)c1N1CC[C@@H](N2Cc3cccc(OC)c3N(Cc3ccccc3C(F)(F)F)C2=O)C1 [Example 11, 3-[(R)-1-(2-Fluoro-6-methoxy-phenyl)-pyrrolidin-3-yl]-8-methoxy-1-(2-trifluoromethyl-benzyl)-3,4-dihydro-1H-quinazolin-2-one] | 219 nM |
| Cn1nc(C2CC2)c(Cl)c1N1CCC(N2Cc3ccccc3N(Cc3ccccc3C(F)(F)F)C2=O)CC1 [Example 12, 3-[1-(4-Chloro-5-cyclopropyl-2-methyl-2H-pyrazol-3-yl)-piperidin-4-yl]-1-(2-trifluoromethyl-benzyl)-3,4-dihydro-1H-quinazolin-2-one] | 679 nM |
| Cc1cccc(C)c1N1CC[C@H](N2Cc3ccccc3N(Cc3ccccc3C(F)(F)F)C2=O)C1 [Example 14, 3-[(S)-1-(2,6-Dimethyl-phenyl)-pyrrolidin-3-yl]-1-(2-trifluoromethyl-benzyl)-3,4-dihydro-1H-quinazolin-2-one] | 627 nM |

More lines, now with the values ahead:

| IC50 | Compound |
| --- | --- |
| 205 nM | Cc1cccc(F)c1N1CCC(N2C(=O)N(Cc3ccccc3C(F)(F)F)c3ccccc3C2C)CC1 (racemic) [Example 70, 3-[1-(2-Fluoro-6-methyl-phenyl)-piperidin-4-yl]-4-methyl-1-(2-trifluoromethyl-benzyl)-3,4-dihydro-1H-quinazolin-2-one] |
| 847 nM | O=C1N(Cc2ccccc2C(F)(F)F)c2ccccc2CN1[C@H]1CCN(c2c(F)cccc2F)C1 [Example 15, 3-[(S)-1-(2,6-Difluoro-phenyl)-pyrrolidin-3-yl]-1-(2-trifluoromethyl-benzyl)-3,4-dihydro-1H-quinazolin-2-one] |
| 635 nM | COc1ccccc1N1CC[C@H](N2Cc3ccccc3N(Cc3ccccc3C(F)(F)F)C2=O)C1 [Example 16, 3-[(S)-1-(2-Methoxy-phenyl)-pyrrolidin-3-yl]-1-(2-trifluoromethyl-benzyl)-3,4-dihydro-1H-quinazolin-2-one] |
| 437 nM | COc1cccc(F)c1N1CC[C@H](N2Cc3ccccc3N(Cc3ccccc3C(F)(F)F)C2=O)C1 [Example 17, 3-[(S)-1-(2-Fluoro-6-methoxy-phenyl)-pyrrolidin-3-yl]-1-(2-trifluoromethyl-benzyl)-3,4-dihydro-1H-quinazolin-2-one] |
| 28 nM | Cc1cccc(C)c1N1CC[C@@H](N2Cc3ccccc3N(Cc3ccccc3C(F)(F)F)C2=O)C1 [Example 18, 3-[(R)-1-(2,6-Dimethyl-phenyl)-pyrrolidin-3-yl]-1-(2-trifluoromethyl-benzyl)-3,4-dihydro-1H-quinazolin-2-one] |
| 53 nM | O=C1N(Cc2ccccc2C(F)(F)F)c2ccccc2CN1[C@@H]1CCN(c2c(F)cccc2F)C1 [Example 19, 3-[(R)-1-(2,6-Difluoro-phenyl)-pyrrolidin-3-yl]-1-(2-trifluoromethyl-benzyl)-3,4-dihydro-1H-quinazolin-2-one] |
| 181 nM | COc1ccccc1N1CC[C@@H](N2Cc3ccccc3N(Cc3ccccc3C(F)(F)F)C2=O)C1 [Example 20, 3-[(R)-1-(2-Methoxy-phenyl)-pyrrolidin-3-yl]-1-(2-trifluoromethyl-benzyl)-3,4-dihydro-1H-quinazolin-2-one] |
| 37 nM | COc1cccc(F)c1N1CC[C@@H](N2Cc3ccccc3N(Cc3ccccc3C(F)(F)F)C2=O)C1 [Example 21, 3-[(R)-1-(2-Fluoro-6-methoxy-phenyl)-pyrrolidin-3-yl]-1-(2-trifluoromethyl-benzyl)-3,4-dihydro-1H-quinazolin-2-one] |
| 52 nM | COc1cccc(C)c1N1CC[C@@H](N2Cc3cccc(OC)c3N(Cc3ccccc3C(F)(F)F)C2=O)C1 [Example 22, 8-Methoxy-3-[(R)-1-(2-methoxy-6-methyl-phenyl)-pyrrolidin-3-yl]-1-(2-trifluoromethyl-benzyl)-3,4-dihydro-1H-quinazolin-2-one] |
| 32 nM | COc1cccc(C)c1N1CCC(N2Cc3ccccc3N(Cc3ccccc3C(F)(F)F)C2=O)CC1 [Example 23, 3-[1-(2-Methoxy-6-methyl-phenyl)-piperidin-4-yl]-1-(2-trifluoromethyl-benzyl)-3,4-dihydro-1H-quinazolin-2-one] |
| 383 nM | COc1cccc(OC)c1N1CC[C@@H](N2Cc3cccc(OC)c3N(Cc3ccccc3C(F)(F)F)C2=O)C1 [Example 24, 3-[(R)-1-(2,6-Dimethoxy-phenyl)-pyrrolidin-3-yl]-8-methoxy-1-(2-trifluoromethyl-benzyl)-3,4-dihydro-1H-quinazolin-2-one] |
| 497 nM | COc1cccc(C)c1N1CCC(N2Cc3cccc(OC)c3N(Cc3ccccc3C(F)(F)F)C2=O)CC1 [Example 25, 8-Methoxy-3-[1-(2-methoxy-6-methyl-phenyl)-piperidin-4-yl]-1-(2-trifluoromethyl-benzyl)-3,4-dihydro-1H-quinazolin-2-one] |

Source: patent US11685729B2, “C5a receptor modulators” (IDORSIA PHARMACEUTICALS LTD., priority 2018, dated 2023)
